Values quoted from earlier work, collected in EP3697221B1, “AQUEOUS SUSPENSION CONCENTRATES BASED ON 2-[(2,4-DICHLOROPHENYL)-METHYL]-4,4'-DIMETHYL-3-ISOXAZOLIDINONE” (Bayer Aktiengesellschaft, priority 2017, dated 2019).

Conditions: water

Row | SMILES | Wasserlöslichkeit
1 | CC1(C)CON(Cc2ccccc2Cl)C1=O [Clomazone, 2-(2-chlorobenzyl)-4,4-dimethyl-1,2-oxazolidin-3-one] | 1000 ppm
2 | CC1(C)CON(Cc2ccc(Cl)cc2Cl)C1=O [DCPMI, 2-[(2,4-Dichlorphenyl)-methyl]-4,4'-dimethyl-3-isoxazolidinone] | 39,5 ppm
